pIC50: −log10 of the molar value.
Tests used:
[1] = test system: HeLa; experiment: Antiproliferation activity against human HeLa cells assessed as reduction in cell viability measured after 72 hrs by MTT assay; format: functional, cell-based
[2] = test system: MCF7; experiment: Antiproliferation activity against human MCF7 cells assessed as reduction in cell viability measured after 72 hrs by MTT assay; format: functional, cell-based; conditions: MCF7, 72 h
[3] = test system: L02; experiment: Cytotoxicity against human L02 cells assessed as reduction in cell viability measured after 72 hrs by MTT assay; format: cell-based; conditions: L02, 72 h
[4] = Selectivity index, ratio of IC50 for human L02 cells to IC50 for human A549 cells assessed as reduction in cell viability measured after 72 hrs by MTT assay; format: toxicity; conditions: L02 cells versus A549 cells, read-out: Ratio IC50
[5] = test system: A549; experiment: Antiproliferation activity against human A549 cells assessed as reduction in cell viability measured after 72 hrs by MTT assay; format: functional, cell-based; conditions: A549, 72 h
[6] = test system: NCI-H1975; experiment: Antiproliferation activity against human NCI-H1975 cells harboring EGFR T790M/L858R mutation assessed as reduction in cell viability measured after 72 hrs by MTT assay; format: functional, cell-based; conditions: NCI-H1975, 72 h

| Structure (SMILES) | pIC50 [1] | pIC50 [2] | pIC50 [5] | pIC50 [6] | pIC50 [3] | selectivity ratio at 72 h [4] |
| --- | --- | --- | --- | --- | --- | --- |
| CC(C)/C=C/C(=O)Nc1cccc(Oc2nc(Nc3cccc(C#N)c3)nc3c2CSCC3)c1 | 4.64 | 4.53 | 4.44 |  | < 4.30 | > 1.39 |
| C=CC(=O)Nc1cccc(Oc2nc(Nc3ccc(OC)nc3)nc3c2CSCC3)c1 | 4.58 | 4.76 | 4.84 | 4.86 | < 4.30 | > 3.43 |
| COc1cccc(Nc2nc3c(c(Oc4cccc(NC(=O)/C=C/C(C)C)c4)n2)CSCC3)c1 | < 4.30 | 4.66 | 4.60 | 4.60 | < 4.30 | > 1.98 |
| C/C=C/C(=O)Nc1cccc(Oc2nc(Nc3cccc(C#N)c3)nc3c2CSCC3)c1 | 4.89 | 4.67 | 4.76 | 4.55 | < 4.30 | > 2.91 |
| C=CC(=O)Nc1cccc(Oc2nc(Nc3cccc(OC)c3)nc3c2CSCC3)c1 | 4.54 | < 4.30 | 5.00 | 5.02 | 4.31 |  |
| CC/C=C/C(=O)Nc1cccc(Oc2nc(Nc3ccc(OC)cc3)nc3c2CSCC3)c1 | 4.56 | 4.50 | 4.70 | 4.76 | < 4.30 | > 2.49 |
| COc1ccc(Nc2nc3c(c(Oc4cccc(NC(=O)C=C(C)C)c4)n2)CSCC3)cc1 | 4.72 | < 4.30 | 4.57 |  | < 4.30 | > 1.86 |
| C/C=C/C(=O)Nc1cccc(Oc2nc(Nc3ccc(OC)cc3)nc3c2CSCC3)c1 | < 4.30 | 4.61 | 4.65 |  | < 4.30 | > 2.25 |
| COc1ccc(Nc2nc3c(c(Oc4cccc(NC(=O)C=C(C)C)c4)n2)CSCC3)cn1 | 4.54 | 4.65 | 4.77 |  | < 4.30 | > 2.97 |
| CC(C)=CC(=O)Nc1cccc(Oc2nc(Nc3cccc(C#N)c3)nc3c2CSCC3)c1 | 4.53 | < 4.30 | 4.43 |  | < 4.30 | > 1.36 |

Continued, in another order:

| pIC50 [1] | pIC50 [2] | pIC50 [5] | pIC50 [6] | Structure (SMILES) | pIC50 [3] | selectivity ratio at 72 h [4] |
| --- | --- | --- | --- | --- | --- | --- |
| 4.59 | < 4.30 | 4.73 |  | C=CC(=O)Nc1cccc(Oc2nc(Nc3ccn(C)n3)nc3c2CSCC3)c1 | < 4.30 | > 2.7 |
| < 4.30 | 4.40 | < 4.30 | 4.45 | C/C=C/C(=O)Nc1cccc(Oc2nc(Nc3ccn(C)n3)nc3c2CSCC3)c1 | < 4.30 |  |
| < 4.30 | < 4.30 | 4.35 |  | CC(C)=CC(=O)Nc1cccc(Oc2nc(Nc3ccn(C)n3)nc3c2CSCC3)c1 | < 4.30 | > 1.13 |
| < 4.30 | < 4.30 | 4.33 |  | C=C(C)C(=O)Nc1cccc(Oc2nc(Nc3ccn(C)n3)nc3c2CSCC3)c1 | < 4.30 | > 1.06 |
| 4.64 | < 4.30 | 4.59 |  | COc1ccc(Nc2nc3c(c(Oc4cccc(NC(=O)/C=C/C(C)C)c4)n2)CSCC3)cc1 | < 4.30 | > 1.93 |
| 4.40 | < 4.30 | 4.48 |  | CC(C)/C=C/C(=O)Nc1cccc(Oc2nc(Nc3ccn(C)n3)nc3c2CSCC3)c1 | < 4.30 | > 1.49 |
| 4.56 | 4.43 | 4.62 |  | COc1ccc(Nc2nc3c(c(Oc4cccc(NC(=O)/C=C/C(C)C)c4)n2)CSCC3)cn1 | < 4.30 | > 2.06 |
| < 4.30 | < 4.30 | 4.43 |  | CC/C=C/C(=O)Nc1cccc(Oc2nc(Nc3ccn(C)n3)nc3c2CSCC3)c1 | < 4.30 | > 1.36 |

— ChEMBL document CHEMBL4725402, “Discovery of thiapyran-pyrimidine derivatives as potential EGFR inhibitors” (Bioorg Med Chem, 2020)
